# Assay results: patent US10759783B2, “Biaryl inhibitors of Bruton'S tyrosine kinase” (BIOGEN MA INC., priority 2013, dated 2020)
# Tests used:
# BTK enzyme = molecular target: T1, BTK enzyme (Homo sapiens, UniProt Q06187); experiment: In vitro BTK kinase assay: BTK-POLYGAT-LS assay; assay type: biochemical; conditions: ATP 10 μM, read-out: IC50 (10uMATP)
# T1 construct: purchased Upstate 14-552
# Method in brief: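 Human BTK activity was measured with final 10 μM ATP and 100 nM polyGAT substrate in pH 7.5 Tris buffer with 10 mM MgCl2, DTT, Triton X-100 and casein.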
# [1] = molecular target: BTK (phospho-BTK) in human whole blood (Homo sapiens, UniProt Q06187); experiment: In vitro PD assay in human whole blood (pBTK assay)
# BTK (phospho-BTK) in human whole blood, sequence (Q06187 whole entry): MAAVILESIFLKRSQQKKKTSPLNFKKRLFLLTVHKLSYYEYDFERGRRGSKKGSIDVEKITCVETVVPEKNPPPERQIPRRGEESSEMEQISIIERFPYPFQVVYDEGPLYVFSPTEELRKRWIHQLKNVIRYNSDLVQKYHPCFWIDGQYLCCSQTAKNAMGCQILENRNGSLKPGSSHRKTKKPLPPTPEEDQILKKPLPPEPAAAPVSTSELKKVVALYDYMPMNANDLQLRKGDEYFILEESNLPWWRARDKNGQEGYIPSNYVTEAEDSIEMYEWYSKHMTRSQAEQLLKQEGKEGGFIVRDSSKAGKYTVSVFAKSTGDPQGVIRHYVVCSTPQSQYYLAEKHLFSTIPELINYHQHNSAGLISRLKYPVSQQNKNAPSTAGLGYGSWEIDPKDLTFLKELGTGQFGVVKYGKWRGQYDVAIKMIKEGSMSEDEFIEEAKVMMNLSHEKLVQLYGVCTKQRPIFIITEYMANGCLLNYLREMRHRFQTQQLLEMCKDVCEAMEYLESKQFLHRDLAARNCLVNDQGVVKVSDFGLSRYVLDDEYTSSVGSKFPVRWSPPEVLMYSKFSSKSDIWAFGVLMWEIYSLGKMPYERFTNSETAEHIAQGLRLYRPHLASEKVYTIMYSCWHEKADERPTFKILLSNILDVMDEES
# T1 sequence (Q06187 whole entry): as above
Compound,IC50 (BTK enzyme),IC50 [1]
"Cc1cc(-c2cc(Nc3cc4n(n3)CCN(C)C4)ncn2)ccc1CNC(=O)N1CC[C@@H](C(C)(C)C)C1 [Example I-244, (S)-3-(tert-butyl)-N-(2-methyl-4-(6-((5-methyl-4,5,6,7-tetrahydropyrazolo[1,5-a]pyrazin-2-yl)amino)pyrimidin-4-yl)benzyl)pyrrolidine-1-carboxamide]",< 10 nM,< 500 nM
"Cc1cc(-c2cc(Nc3cc4n(n3)CCN(C)C4)ncn2)ccc1CNC(=O)N1CC[C@H](C(C)(C)C)C1 [Example I-245, (R)-3-(tert-butyl)-N-(2-methyl-4-(6-((5-methyl-4,5,6,7-tetrahydropyrazolo[1,5-a]pyrazin-2-yl)amino)pyrimidin-4-yl)benzyl)pyrrolidine-1-carboxamide]",< 10 nM,< 500 nM
"CCn1cc(Nc2nccc(-c3ccc(CNC(=O)c4cnn(C(C)(C)C)c4)c(C)c3)n2)cn1 [Example I-247, 1-(tert-butyl)-N-(4-(2-((1-ethyl-1H-pyrazol-4-yl)amino)pyrimidin-4-yl)-2-methylbenzyl)-1H-pyrazole-4-carboxamide]",< 10 nM,< 500 nM
"Cn1cc(Nc2nccc(-c3ccc4c(c3)CCNCC4NC(=O)N3CC(OC(C)(C)C)C3)n2)cn1 (stereo not drawn) [Example I-248, 3-(tert-butoxy)-N-(7-(2-((1-methyl-1H-pyrazol-4-yl)amino)pyrimidin-4-yl)-2,3,4,5-tetrahydro-H-benzo[d]azepin-1-yl)azetidine-1-carboxamide]",< 10 nM,< 500 nM
"Cc1cc(-c2ccnc(Nc3cnn(C)c3)n2)ccc1CN1CCN(CC(C)C)CC1=O [Example I-249, 4-isobutyl-1-(2-methyl-4-(2-((1-methyl-1H-pyrazol-4-yl)amino)pyrimidin-4-yl)benzyl)piperazin-2-one]",< 10 nM,< 500 nM
"Cc1cc(-c2ccnc(Nc3cnn(CCO)c3)n2)ccc1CNC(=O)c1cnn(C(C)(C)C)c1 [Example I-250, 1-tert-butyl-N-[[4-[2-[[1-(2-hydroxyethyl)pyrazol-4-yl]amino]pyrimidin-4-yl]-2-methyl-phenyl]methyl]pyrazole-4-carboxamide]",< 10 nM,< 500 nM
"Cc1cc(-c2cc(Nc3ccc(N4CCN(C)CC4)cn3)ncn2)ccc1CNC(=O)N1CC(OC(C)(C)C)C1 [Example I-251, 3-tert-butoxy-N-[[2-methyl-4-[6-[[5-(4-methylpiperazin-1-yl)-2-pyridyl]amino]pyrimidin-4-yl]phenyl]methyl]azetidine-1-carboxamide]",< 10 nM,< 500 nM
"Cc1cc(-c2ccnc(Nc3cnn(C)c3)n2)ccc1CNC(=O)c1ccn(C(C)(C)C)n1 [Example I-252, 1-tert-butyl-N-[[2-methyl-4-[2-[(1-methylpyrazol-4-yl)amino]pyrimidin-4-yl]phenyl]methyl]pyrazole-3-carboxamide]",< 10 nM,< 500 nM
"Cc1cc(-c2ccnc(Nc3cnn(C)c3)n2)ccc1CNC(=O)N1CC[C@H](C(C)(C)C)C1 [Example I-253, (3R)-3-tert-butyl-N-[[2-methyl-4-[2-[(1-methylpyrazol-4-yl)amino]pyrimidin-4-yl]phenyl]methyl]pyrrolidine-1-carboxamide]",< 10 nM,< 500 nM
Cc1cc(-c2ccnc(Nc3cnn(C)c3)n2)ccc1CNC(=O)N1CC[C@@H](C(C)(C)C)C1 [Example I-254],< 10 nM,< 500 nM
"Cc1cc(-c2ccnc(Nc3cnn(C)c3)n2)ccc1CNC(=O)N1CC[C@@H](C(C)C)C1 [Example I-255, (3S)-3-isopropyl-N-[[2-methyl-4-[2-[(1-methylpyrazol-4-yl)amino]pyrimidin-4-yl]phenyl]methyl]pyrrolidine-1-carboxamide]",< 10 nM,< 500 nM
"Cc1cc(-c2cc(Nc3cc4n(n3)CCN(C)C4)ncn2)ccc1CNC(=O)N1CC(OC(C)(C)C)C1 [Example I-256, 3-tert-butoxy-N-[[2-methyl-4-[6-[(5-methyl-6,7-dihydro-4H-pyrazolo[1,5-a]pyrazin-2-yl)amino]pyrimidin-4-yl]phenyl]methyl]azetidine-1-carboxamide]",< 10 nM,< 500 nM
"Cc1cc(-c2ccnc(Nc3cnn(C(C)C)c3)n2)ccc1CNC(=O)c1cnn(C(C)(C)C)c1 [Example I-258, 1-tert-butyl-N-[[4-[2-[(1-isopropylpyrazol-4-yl)amino]pyrimidin-4-yl]-2-methyl-phenyl]methyl]pyrazole-4-carboxamide]",< 10 nM,< 500 nM
"Cc1cc(-c2ccnc(Nc3cnn(C(C)C)c3)n2)ccc1CNC(=O)N1CC(OC(C)C)C1 [Example I-259, 3-isopropoxy-N-[[4-[2-[(1-isopropylpyrazol-4-yl)amino]pyrimidin-4-yl]-2-methyl-phenyl]methyl]azetidine-1-carboxamide]",< 10 nM,< 500 nM
"Cc1cc(-c2ccnc(Nc3cnn(C4CC4)c3)n2)ccc1CNC(=O)c1cnn(C(C)(C)C)c1 [Example I-260, 1-tert-butyl-N-[[4-[2-[(1-cyclopropylpyrazol-4-yl)amino]pyrimidin-4-yl]-2-methyl-phenyl]methyl]pyrazole-4-carboxamide]",< 10 nM,< 500 nM
"CCCC1CN(C(=O)NCc2ccc(-c3ccnc(Nc4cnn(C)c4)n3)cc2C)C1 [Example I-263, N-[[2-methyl-4-[2-[(1-methylpyrazol-4-yl)amino]pyrimidin-4-yl]phenyl]methyl]-3-propyl-azetidine-1-carboxamide]",< 10 nM,< 500 nM
"Cc1cc(-c2cc(Nc3cc4n(n3)CCN(C)C4)ncn2)ccc1CNC(=O)c1cc(C(C)(C)C)on1 [Example I-265, 5-tert-butyl-N-[[2-methyl-4-[6-[(5-methyl-6,7-dihydro-4H-pyrazolo[1,5-a]pyrazin-2-yl)amino]pyrimidin-4-yl]phenyl]methyl]isoxazole-3-carboxamide]",< 10 nM,< 500 nM
"Cc1cc(-c2cc(Nc3ccc4c(n3)CCNC4)ncn2)ccc1CNC(=O)c1cnc(C(C)(C)C)s1 [Example I-266, 2-tert-butyl-N-[[2-methyl-4-[6-(5,6,7,8-tetrahydro-1,6-naphthyridin-2-ylamino)pyrimidin-4-yl]phenyl]methyl]thiazole-5-carboxamide]",< 10 nM,< 500 nM
"Cc1cc(-c2cc(Nc3cc4c(cn3)CNCC4)ncn2)ccc1CNC(=O)c1cnc(C(C)(C)C)s1 [Example I-267, 2-tert-butyl-N-[[2-methyl-4-[6-(5,6,7,8-tetrahydro-2,7-naphthyridin-3-ylamino)pyrimidin-4-yl]phenyl]methyl]thiazole-5-carboxamide]",< 10 nM,< 500 nM

# Results, then the compound that gave them:
IC50 (BTK enzyme),IC50 [1],Compound
< 10 nM,< 500 nM,"Cc1cc(-c2cc(Nc3cc4c(cn3)CN(CCO)CC4)ncn2)ccc1CNC(=O)c1cnc(C(C)(C)C)s1 [Example I-268, 2-tert-butyl-N-[[4-[6-[[7-(2-hydroxyethyl)-6,8-dihydro-5H-2,7-naphthyridin-3-yl]amino]pyrimidin-4-yl]-2-methyl-phenyl]methyl]thiazole-5-carboxamide]"
< 10 nM,< 500 nM,"Cc1cc(-c2cc(Nc3cc4c(cn3)CN(C)CC4)ncn2)ccc1CNC(=O)c1cnc(C(C)(C)C)s1 [Example I-269, 2-tert-butyl-N-[[2-methyl-4-[6-[(7-methyl-6,8-dihydro-5H-2,7-naphthyridin-3-yl)amino]pyrimidin-4-yl]phenyl]methyl]thiazole-5-carboxamide]"
< 10 nM,< 500 nM,"Cc1cc(-c2cc(Nc3cc4n(n3)CCNC4)ncn2)ccc1CNC(=O)c1cnc(C(C)(C)C)s1 [Example I-270, 2-tert-butyl-N-[[2-methyl-4-[6-(4,5,6,7-tetrahydropyrazolo[1,5-a]pyrazin-2-ylamino)pyrimidin-4-yl]phenyl]methyl]thiazole-5-carboxamide]"
< 10 nM,< 500 nM,"Cc1cc(-c2cc(Nc3cc4n(n3)CCN(CCO)C4)ncn2)ccc1CNC(=O)c1cnc(C(C)(C)C)s1 [Example I-271, 2-tert-butyl-N-[[4-[6-[[5-(2-hydroxyethyl)-6,7-dihydro-4H-pyrazolo[1,5-a]pyrazin-2-yl]amino]pyrimidin-4-yl]-2-methyl-phenyl]methyl]thiazole-5-carboxamide]"
< 10 nM,< 500 nM,"Cc1cc(-c2cc(Nc3cc4n(n3)CCNC4)ncn2)ccc1CNC(=O)N1CC(OC(C)C)C1 [Example I-272, 3-isopropoxy-N-[[2-methyl-4-[6-(4,5,6,7-tetrahydropyrazolo[1,5-a]pyrazin-2-ylamino)pyrimidin-4-yl]phenyl]methyl]azetidine-1-carboxamide]"
< 10 nM,< 500 nM,"Cc1cc(-c2cc(Nc3cc4n(n3)CCCNC4)ncn2)ccc1CNC(=O)N1CC(OC(C)C)C1 [Example I-273, 3-isopropoxy-N-[[2-methyl-4-[6-(5,6,7,8-tetrahydro-4H-pyrazolo[1,5-a][1,4]diazepin-2-ylamino)pyrimidin-4-yl]phenyl]methyl]azetidine-1-carboxamide]"
< 10 nM,< 500 nM,"Cc1cc(-c2cc(Nc3cc4n(n3)CCCN(CCO)C4)ncn2)ccc1CNC(=O)N1CC(OC(C)C)C1 [Example I-274, N-[[4-[6-[[5-(2-hydroxyethyl)-4,6,7,8-tetrahydropyrazolo[1,5-a][1,4]diazepin-2-yl]amino]pyrimidin-4-yl]-2-methyl-phenyl]methyl]-3-isopropoxy-azetidine-1-carboxamide]"
< 10 nM,< 500 nM,"Cc1cc(-c2cc(Nc3cc4n(n3)CCN(C)C4)ncn2)ccc1CNC(=O)N1CCC(C(C)(C)C)C1 (stereo not drawn) [Example I-275, 3-tert-butyl-N-[[2-methyl-4-[6-[(5-methyl-6,7-dihydro-4H-pyrazolo[1,5-a]pyrazin-2-yl)amino]pyrimidin-4-yl]phenyl]methyl]pyrrolidine-1-carboxamide]"
